Assay results taken from ChEMBL document CHEMBL1146694, “Novel targeting strategy based on multimeric ligands for drug delivery and molecular imaging: homooligomers of alpha-MSH” (Bioorg Med Chem Lett, 2004).

How the values were obtained:
Melanocortin receptor 4 = Melanocortin receptor 4 (Homo sapiens, UniProt P32245); test: Binding affinity towards human melanocortin 4 receptor was determined using [125I]-NDP-alpha-MSH as radioligand transfected in HEK293 human embryonic kidney cells; assay type: cell-based; details: read-out: EC50
[1] = Hill coefficient was determined; assay type: ADME

Sequence of Melanocortin receptor 4 (P32245 whole entry): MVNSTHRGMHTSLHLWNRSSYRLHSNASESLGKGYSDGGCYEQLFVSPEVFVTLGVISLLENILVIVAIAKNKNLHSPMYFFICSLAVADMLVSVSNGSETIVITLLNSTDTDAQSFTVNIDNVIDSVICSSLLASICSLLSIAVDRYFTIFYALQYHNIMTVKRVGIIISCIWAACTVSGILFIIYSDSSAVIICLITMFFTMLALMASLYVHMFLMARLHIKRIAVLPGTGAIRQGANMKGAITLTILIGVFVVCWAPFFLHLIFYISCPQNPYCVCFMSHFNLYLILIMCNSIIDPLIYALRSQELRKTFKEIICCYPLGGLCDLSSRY

Compound CC(=O)N[C@@H](Cc1c[nH]cn1)C(=O)N[C@H](Cc1ccccc1)C(=O)N[C@@H](CCCN=C(N)N)C(=O)N[C@@H](Cc1c[nH]c2ccccc12)C(=O)Nc1ccc(C(=O)Nc2ccc(C(=O)N[C@@H](Cc3c[nH]cn3)C(=O)N[C@H](Cc3ccccc3)C(=O)N[C@@H](CCCN=C(N)N)C(=O)N[C@@H](Cc3c[nH]c4ccccc34)C(N)=O)cc2)cc1 has a binding affinity (radioligand displacement) (Melanocortin receptor 4) of 123 nM and a Hill coefficient [1] of 1.12.

CC(=O)N[C@@H](Cc1c[nH]cn1)C(=O)N[C@H](Cc1ccccc1)C(=O)N[C@@H](CCCN=C(N)N)C(=O)N[C@@H](Cc1c[nH]c2ccccc12)C(=O)NCCC(=O)NCC(=O)NCCC(=O)NCC(=O)NCCC(=O)NCC(=O)NCCC(=O)N[C@@H](Cc1c[nH]cn1)C(=O)N[C@H](Cc1ccccc1)C(=O)N[C@@H](CCCN=C(N)N)C(=O)N[C@@H](Cc1c[nH]c2ccccc12)C(N)=O showed a binding affinity (radioligand displacement) (Melanocortin receptor 4) of 571 nM and a Hill coefficient [1] of 0.88.

Compound CC(=O)N[C@@H](Cc1c[nH]cn1)C(=O)N[C@H](Cc1ccccc1)C(=O)N[C@@H](CCCN=C(N)N)C(=O)N[C@@H](Cc1c[nH]c2ccccc12)C(=O)NCCCC[C@H](NC(=O)CCNC(=O)[C@H](Cc1c[nH]c2ccccc12)NC(=O)[C@H](CCCN=C(N)N)NC(=O)[C@@H](Cc1ccccc1)NC(=O)[C@H](Cc1c[nH]cn1)NC(C)=O)C(=O)NCCC(=O)N[C@@H](Cc1c[nH]cn1)C(=O)N[C@H](Cc1ccccc1)C(=O)N[C@@H](CCCN=C(N)N)C(=O)N[C@@H](Cc1c[nH]c2ccccc12)C(N)=O has a binding affinity (radioligand displacement) (Melanocortin receptor 4; hek293) of 15 nM and a Hill coefficient [1] of 1.13.

With CC(=O)N[C@@H](Cc1c[nH]cn1)C(=O)N[C@H](Cc1ccccc1)C(=O)N[C@@H](CCCN=C(N)N)C(=O)N[C@@H](Cc1c[nH]c2ccccc12)C(=O)Nc1ccc(C(=O)N[C@@H](Cc2c[nH]cn2)C(=O)N[C@H](Cc2ccccc2)C(=O)N[C@@H](CCCN=C(N)N)C(=O)N[C@@H](Cc2c[nH]c3ccccc23)C(N)=O)cc1 the binding affinity (radioligand displacement) (Melanocortin receptor 4) was 38 nM and the Hill coefficient [1] was 1.05.

CCCC[C@H](NC(C)=O)C(=O)N[C@@H](CCC(=O)O)C(=O)N[C@@H](Cc1c[nH]cn1)C(=O)N[C@H](Cc1ccccc1)C(=O)N[C@@H](CCCN=C(N)N)C(=O)N[C@@H](Cc1c[nH]c2ccccc12)C(=O)NCCOCCOCCNC(=O)CCC(=O)N[C@@H](CCCC)C(=O)N[C@@H](CCC(=O)O)C(=O)N[C@@H](Cc1c[nH]cn1)C(=O)N[C@H](Cc1ccccc1)C(=O)N[C@@H](CCCN=C(N)N)C(=O)N[C@@H](Cc1c[nH]c2ccccc12)C(N)=O showed a binding affinity (radioligand displacement) (Melanocortin receptor 4) of 9 nM and a Hill coefficient [1] of 1.23.

In the case of CC(=O)N[C@@H](Cc1c[nH]cn1)C(=O)N[C@H](Cc1ccccc1)C(=O)N[C@@H](CCCN=C(N)N)C(=O)N[C@@H](Cc1c[nH]c2ccccc12)C(=O)NCCCC[C@H](NC(=O)CCNC(=O)CNC(=O)CCNC(=O)[C@H](Cc1c[nH]c2ccccc12)NC(=O)[C@H](CCCN=C(N)N)NC(=O)[C@@H](Cc1ccccc1)NC(=O)[C@H](Cc1c[nH]cn1)NC(C)=O)C(=O)NCCC(=O)NCC(=O)NCCC(=O)N[C@@H](Cc1c[nH]cn1)C(=O)N[C@H](Cc1ccccc1)C(=O)N[C@@H](CCCN=C(N)N)C(=O)N[C@@H](Cc1c[nH]c2ccccc12)C(N)=O, the binding affinity (radioligand displacement) (Melanocortin receptor 4; hek293) is reported as 24 nM and the Hill coefficient [1] is reported as 1.56.

In the case of CCCC[C@H](NC(C)=O)C(=O)N[C@@H](CCC(=O)O)C(=O)N[C@@H](Cc1c[nH]cn1)C(=O)N[C@H](Cc1ccccc1)C(=O)N[C@@H](CCCN=C(N)N)C(=O)N[C@@H](Cc1c[nH]c2ccccc12)C(=O)NCCCOCCOCCOCCCNC(=O)CCC(=O)N[C@@H](CCCC)C(=O)N[C@@H](CCC(=O)O)C(=O)N[C@@H](Cc1c[nH]cn1)C(=O)N[C@H](Cc1ccccc1)C(=O)N[C@@H](CCCN=C(N)N)C(=O)N[C@@H](Cc1c[nH]c2ccccc12)C(N)=O, the binding affinity (radioligand displacement) (Melanocortin receptor 4; hek293) is reported as 33 nM and the Hill coefficient [1] is reported as 1.59.

Compound CC(=O)N[C@@H](Cc1cnc[nH]1)C(=O)N[C@H](Cc1ccccc1)C(=O)N[C@@H](CCCNC(=N)N)C(=O)N[C@@H](Cc1c[nH]c2ccccc12)C(=O)NCCC(=O)NCC(=O)NCCC(=O)N[C@@H](Cc1cnc[nH]1)C(=O)N[C@H](Cc1ccccc1)C(=O)N[C@@H](CCCNC(=N)N)C(=O)N[C@@H](Cc1c[nH]c2ccccc12)C(N)=O has a binding affinity (radioligand displacement) (Melanocortin receptor 4) of 143 nM and a Hill coefficient [1] of 0.99.

CCCC[C@H](NC(C)=O)C(=O)N[C@@H](CCC(=O)O)C(=O)N[C@@H](Cc1cnc[nH]1)C(=O)N[C@H](Cc1ccccc1)C(=O)N[C@@H](CCCNC(=N)N)C(=O)N[C@@H](Cc1c[nH]c2ccccc12)C(=O)NCCC(=O)NCC(=O)NCCC(=O)N[C@@H](CCCC)C(=O)N[C@@H](CCC(=O)O)C(=O)N[C@@H](Cc1cnc[nH]1)C(=O)N[C@H](Cc1ccccc1)C(=O)N[C@@H](CCCNC(=N)N)C(=O)N[C@@H](Cc1c[nH]c2ccccc12)C(N)=O showed a binding affinity (radioligand displacement) (Melanocortin receptor 4) of 7 nM and a Hill coefficient [1] of 0.91.

CC(=O)N[C@@H](Cc1c[nH]cn1)C(=O)N[C@H](Cc1ccccc1)C(=O)N[C@@H](CCCN=C(N)N)C(=O)N[C@@H](Cc1c[nH]c2ccccc12)C(=O)NCCC(=O)N[C@@H](Cc1c[nH]cn1)C(=O)N[C@H](Cc1ccccc1)C(=O)N[C@@H](CCCN=C(N)N)C(=O)N[C@@H](Cc1c[nH]c2ccccc12)C(N)=O showed a binding affinity (radioligand displacement) (Melanocortin receptor 4) of 119 nM and a Hill coefficient [1] of 1.39.

Work on CC(=O)N[C@@H](Cc1c[nH]cn1)C(=O)N[C@H](Cc1ccccc1)C(=O)N[C@@H](CCCN=C(N)N)C(=O)N[C@@H](Cc1c[nH]c2ccccc12)C(=O)NCCOCCOCCNC(=O)CCC(=O)N[C@@H](Cc1c[nH]cn1)C(=O)N[C@H](Cc1ccccc1)C(=O)N[C@@H](CCCN=C(N)N)C(=O)N[C@@H](Cc1c[nH]c2ccccc12)C(N)=O yielded a binding affinity (radioligand displacement) (Melanocortin receptor 4) of 234 nM and a Hill coefficient [1] of 1.1.

Compound CC(=O)N[C@@H](Cc1c[nH]cn1)C(=O)N[C@H](Cc1ccccc1)C(=O)N[C@@H](CCCN=C(N)N)C(=O)N[C@@H](Cc1c[nH]c2ccccc12)C(=O)NCCCOCCOCCOCCCNC(=O)CCC(=O)N[C@@H](Cc1c[nH]cn1)C(=O)N[C@H](Cc1ccccc1)C(=O)N[C@@H](CCCN=C(N)N)C(=O)N[C@@H](Cc1c[nH]c2ccccc12)C(N)=O has a binding affinity (radioligand displacement) (Melanocortin receptor 4; hek293) of 662 nM and a Hill coefficient [1] of 1.83.

In the case of CC(=O)N[C@@H](Cc1c[nH]cn1)C(=O)N[C@H](Cc1ccccc1)C(=O)N[C@@H](CCCN=C(N)N)C(=O)N[C@@H](Cc1c[nH]c2ccccc12)C(=O)N1CCC[C@H]1C(=O)NCC(=O)N1CCC[C@H]1C(=O)N[C@@H](Cc1c[nH]cn1)C(=O)N[C@H](Cc1ccccc1)C(=O)N[C@@H](CCCN=C(N)N)C(=O)N[C@@H](Cc1c[nH]c2ccccc12)C(N)=O, the binding affinity (radioligand displacement) (Melanocortin receptor 4) is reported as 14 nM and the Hill coefficient [1] is reported as 0.84.

With CC(=O)N[C@@H](Cc1c[nH]cn1)C(=O)N[C@H](Cc1ccccc1)C(=O)N[C@@H](CCCN=C(N)N)C(=O)N[C@@H](Cc1c[nH]c2ccccc12)C(=O)N[C@@H](Cc1c[nH]cn1)C(=O)N[C@H](Cc1ccccc1)C(=O)N[C@@H](CCCN=C(N)N)C(=O)N[C@@H](Cc1c[nH]c2ccccc12)C(N)=O the binding affinity (radioligand displacement) (Melanocortin receptor 4) was 264 nM and the Hill coefficient [1] was 0.9.

CCCC[C@H](NC(C)=O)C(=O)N[C@@H](CCC(=O)O)C(=O)N[C@@H](Cc1cnc[nH]1)C(=O)N[C@H](Cc1ccccc1)C(=O)N[C@@H](CCCNC(=N)N)C(=O)N[C@@H](Cc1c[nH]c2ccccc12)C(=O)NCCCOCCOCCOCCCNC(=O)CCC(=O)NCCCOCCOCCOCCCNC(=O)CCC(=O)N[C@@H](CCCC)C(=O)N[C@@H](CCC(=O)O)C(=O)N[C@@H](Cc1cnc[nH]1)C(=O)N[C@H](Cc1ccccc1)C(=O)N[C@@H](CCCNC(=N)N)C(=O)N[C@@H](Cc1c[nH]c2ccccc12)C(N)=O gave a binding affinity (radioligand displacement) (Melanocortin receptor 4; hek293) of 122 nM and a Hill coefficient [1] of 0.97.

Work on CC(=O)N[C@@H](Cc1cnc[nH]1)C(=O)N[C@H](Cc1ccccc1)C(=O)N[C@@H](CCCNC(=N)N)C(=O)N[C@@H](Cc1c[nH]c2ccccc12)C(=O)Nc1ccc(C(=O)Nc2ccc(C(=O)Nc3ccc(C(=O)N[C@@H](Cc4cnc[nH]4)C(=O)N[C@H](Cc4ccccc4)C(=O)N[C@@H](CCCNC(=N)N)C(=O)N[C@@H](Cc4c[nH]c5ccccc45)C(N)=O)cc3)cc2)cc1 yielded a binding affinity (radioligand displacement) (Melanocortin receptor 4) of 164 nM and a Hill coefficient [1] of 1.05.

CC(=O)N[C@@H](Cc1c[nH]cn1)C(=O)N[C@H](Cc1ccccc1)C(=O)N[C@@H](CCCN=C(N)N)C(=O)N[C@@H](Cc1c[nH]c2ccccc12)C(=O)NCCC(=O)NCC(=O)NCCC(=O)NCC(=O)NCCC(=O)N[C@@H](Cc1c[nH]cn1)C(=O)N[C@H](Cc1ccccc1)C(=O)N[C@@H](CCCN=C(N)N)C(=O)N[C@@H](Cc1c[nH]c2ccccc12)C(N)=O gave a binding affinity (radioligand displacement) (Melanocortin receptor 4) of 231 nM and a Hill coefficient [1] of 1.09.
